Entries after “also recorded” stand apart in the source; their conditions may differ. Where a name gives a salt, the structure may show the parent alone.

Series [1] has as its system MDA-MB-435 cells. The experiment in a line: MTT assay, continuous drug exposure for 48 hours (Table 3). Type of series: cell-based, human.
Series [2] has as its target human CYP3A4 (Homo sapiens, UniProt P08684). The experiment in a line: Inhibition of human cDNA-expressed CYP3A4 (BFC metabolism). Format: in vitro ADME. The conditions noted are these: BFC substrate, 37° C. The protocol: The metabolism of fluorescent substrates by human cDNA-expressed CYP3A4 was assessed by incubation in 96 well plate at 37° C. Metabolism of 7-benzyloxy-4-trifluoromethylcoumarin (BFC) was assayed by measuring the production of the corresponding 7-hydroxy-4-trifluoro-methylcoumarin.
The investigation of cytochrome P450 enzyme inhibition by potential drug candidates can aid in predicting drug-drug interactions and/or unfavorable PK profiles produced upon dosing.

For series [3], the system named is CEM or HEY cells. The experiment in a line: Cytotoxicity of salicylhydrazides (Table 5). Type of series: cell-based. Conditions: Homo sapiens. From the text:
Human prostate cancer cells (PC3, p53 null, AR−; DU145, p53 mutant, AR−; and LNCaP, p53 wild-type, AR+) and breast cancer cells (MCF-7, overexpressed wild-type p53, ER+; MDA-MB-468, p53 mutant, […]; and MDA-MB-435, p53 mutant, ER−) were obtained from American Type Cell Culture (Manassas, Va.). The human ovarian carcinoma cell line (HEY) naturally resistant to cisplatin (CDDP) was kindly provided by Dr. Dubeau (University of Southern California Norris Cancer Center; Buick et al. (1985) Cancer Res. 45:3668-76 and Hamaguchi et al. (1993) Cancer Res. 53:5225-32). The results with CEM cells were previously described (Neamati et al. (1998) J. Med. Chem. 41:3202-9). Cells were maintained as monolayer cultures in RPMI 1640 supplemented with 10% fetal bovine serum (Gemini-Bioproducts, Woodland, Calif.) and 2 mmol/L L-glutamine at 37° C. in a humidified atmosphere of 5% CO2. To remove the adherent cells from the flask for passaging and counting, cells were washed with PBS without calcium or magnesium, incubated with a small volume of 0.25% trypsin-EDTA solution (Sigma-Aldrich, St. Louis, Mo.) for 5 to 10 minutes, and washed with culture medium and centrifuged. All experiments were done using cells in exponential cell growth.
(§1) Cytotoxicity was assessed by a 3-(4,5-dimethylthiazol-2-yl)-2,5-diphenyltetrazolium bromide assay as previously described (Carmichael et al. (1987) Cancer Res. 47:936-42). Briefly, cells were seeded in 96-well microtiter plates (PC3 and DU145 at 5,000 cells/well and LNCaP at 10,000 cells/well; breast and ovarian cells at 4,000 cells/well) and allowed to attach. Cells were subsequently treated with a continuous exposure to the corresponding drug for 72 hours. A 3-(4,5-dimethylthiazol-2-yl)-2,5-diphenyltetrazolium bromide solution (at a final concentration of 0.5 mg/mL) was added to each well and cells were incubated for 4 hours at 37° C. After removal of the medium, DMSO was added and the absorbance was read at 570 nm. All assays were done in triplicate. The IC50 was then determined for each drug from a plot of log(drug concentration) versus percentage of cell kill.

In series [4] the test system is MDA-MB-435 breast cancer cells. The experiment in a line: MTT cytotoxicity assay, MDA-MB-435. Type of series: cell-based, human. The conditions noted are these: for IC50: Homo sapiens, MTT, 72 h, read-out: IC50. The protocol:
The sensitivity of a panel of seven human cancer cell lines to SC144 was assessed by MTT-assay. […] The sensitivity towards SC144 was time- and dose-dependent.
as §1
(§2) Cytotoxicity was assessed by a 3-(4,5-dimethylthiazol-2-yl)-2,5-diphenyltetrazolium bromide (MTT) assay as previously described.^9 Briefly, cells were seeded in 96-well microtiter plates and allowed to attach. Cells were subsequently treated with continuous exposure to the corresponding drug for 72 h. An MTT solution (at a final concentration of 0.5 mg/mL) was added to each well, and cells were incubated for 4 h at 37° C. After removal of the medium, DMSO was added and the absorbance was read at 570 nm. All assays were done in triplicate. The IC50 was then determined for each drug from a plot of log (drug concentration) versus percentage of cells killed.

Series [5] concerns HCT 116 p53^+/+ colon cancer cells. The experiment in a line: MTT cytotoxicity assay, HCT 116 p53+/+. Type of series: cell-based, human. The conditions noted are these: Homo sapiens, 72 h.
From the text: (§3) Human breast cancer cells MDA-MB-435 and colon cancer HT29, p53 mutant were purchased from the American Type Cell Culture (Manassas, Va.). The HCT116 P53^+/+ and HCT116 P53^−/− cells were kindly provided by Dr. Bert Vogelstein (Johns Hopkins Medical Institutions, Baltimore, Md.). Human prostate cancer cells, LNCaP, were kindly provided by Richard Cote (University of Southern California Keck School of Medicine). Cells were maintained as monolayer cultures in RPMI 1640 media supplemented with 10% fetal bovine serum (Gemini-Bioproducts, Woodland, Calif.) and 2 mmol/L L-glutamine at 37° C. in a humidified atmosphere of 5% CO2. To remove the adherent cells from the flask for passaging and counting, cells were washed with PBS without calcium or magnesium, incubated with a small volume of 0.25% trypsin-EDTA solution (Sigma-Aldrich, St. Louis, Mo.) for 5-10 min, and washed with culture medium and centrifuged. All experiments were performed using cells at exponential growth stage. Cells were routinely checked for mycoplasma contamination using a PCR-based assay (Stratagene, Cambridge, UK).
as §2

For series [6], the system named is HCT 116 p53^−/− colon cancer cells. The experiment in a line: MTT cytotoxicity assay, HCT 116 p53-/-. Type of series: cell-based, human. The conditions noted are these: Homo sapiens, 72 h.
From the text: as §3, §2

The test system of series [7] is HT29 colon cancer cells. The experiment in a line: MTT cytotoxicity assay, HT 29. Conditions: Homo sapiens, 72 h. Format: cell-based, human.
From the text: as §3, §2

Series [8] deals with human cancer cell lines (MDA-MB-435 and three colon cancer cells). As to the kind of experiment: MTT assay, panel of breast, colon and prostate cell lines (Example V). Type of series: cell-based. Conditions: for IC50: Homo sapiens, MDA-MB-435, representative breast, colon, and prostate cell lines, MTT assay, read-out: IC50 values range. The procedure: All new compounds were tested in four human cancer cell lines, a breast cancer cell, MDA-MB-435, and three colon cancer cells.
as §2

In series [9] the test system is LNCaP prostate cancer cells. The experiment in a line: MTT cytotoxicity assay, LNCaP. Conditions: Homo sapiens, hLNCaP, MTT, 72 h, read-out: IC50. Format: cell-based. The procedure:
as §1, §2

The test system of series [10] is cancer cells. As to the kind of experiment: Colony formation assay. Format: cell-based. Conditions: doses ≧1 uM; hydrochloride. The procedure: FIG. 32. […] (A) The IC50 values of SC161′ range from 0.3 to 4 uM in representative breast, colon, and prostate cell lines using MTT assay.
Colony formation assays were also performed to confirm the activity of these compounds as described.^10 Briefly, cells were plated in 6-well plates at a density of 100 cells/well and allowed to attach. The next day, serial dilutions of the corresponding compounds were added and allowed to incubate for 24 h. After exposure, cells were washed in PBS and cultured in free media until colonies were formed (8-10 days). Cells were subsequently washed, fixed with a 1% glutaraldehyde solution for 30 min, and stained with a solution of crystal violet (2%) for 30 min. After staining, cells were thoroughly washed with water. Colonies were imaged on the Versa-Doc Imaging System (Bio-Rad) and counted using the Quantity One quantitation software package (Bio-Rad). The data reported represent means of at least three independent experiments.

human CYP3A4, sequence (P08684 whole entry): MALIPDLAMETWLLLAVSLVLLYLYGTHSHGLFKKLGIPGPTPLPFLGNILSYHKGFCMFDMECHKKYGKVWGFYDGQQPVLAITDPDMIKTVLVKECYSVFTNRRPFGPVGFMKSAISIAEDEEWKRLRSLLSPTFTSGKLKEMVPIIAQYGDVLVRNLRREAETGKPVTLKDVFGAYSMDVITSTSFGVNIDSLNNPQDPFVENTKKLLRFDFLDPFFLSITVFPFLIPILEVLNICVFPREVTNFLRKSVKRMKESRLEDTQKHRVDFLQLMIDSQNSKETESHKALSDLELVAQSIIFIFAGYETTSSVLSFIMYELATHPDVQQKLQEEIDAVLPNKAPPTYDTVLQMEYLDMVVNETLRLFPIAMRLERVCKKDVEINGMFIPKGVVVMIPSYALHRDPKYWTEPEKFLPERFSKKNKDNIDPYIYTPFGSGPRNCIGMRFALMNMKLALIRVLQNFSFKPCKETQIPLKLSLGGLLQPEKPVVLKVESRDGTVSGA

`C=C/C=C(\C(=C)O)C(=O)N1N=C(C)/C(=C\c2cccc(O)c2)C1=O` [SC24] returned a CC50 in series [1] of 0.24 ± 0.03 µM. Also, the IC80 in series [1] (Homo sapiens, MDA-MB-435, read-out: CC80) amounted to 0.97 µM. Besides, in series [2], the “inhibition of CYP3A4 activity” value is reported as “does not significantly inhibit CYP3A4 activity”. Moreover, in [3], inhibition was half-maximal at 0.13 µM (IC50).
Consider `O=C(NNc1nc2ccccc2n2cccc12)C1CSCN1` (stereo not shown) [SC153, Thiazolidine-4-carboxylic acid N′-pyrrolo[1,2-a]quinoxalin-4-yl-hydrazide], for which the melting point amounted to 162 °C. For the same compound, in series [4], the “activity against the breast cancer line” value is “inactive” and the IC50 is > 20 µM. This compound returned an IC50 in [5] of 15 ± 3 µM. Half-maximal inhibition in series [6] (IC50) required 10 ± 2 µM. In series [7], this compound registered an IC50 of 14 ± 1 µM. In addition, the “activity against colon cancer lines” value in [8] is “moderately active”.
The compound `O=C(NNc1nc2ccccc2n2cccc12)c1ccc2cc[nH]c2c1` [SC157, 1H-Indole-6-carboxylic acid N′-pyrrolo[1,2-a]quinoxalin-4-yl-hydrazide] displayed a melting point of 198.5 °C. For the same compound, the IC50 in [4] is > 20 µM. Also, the IC50 in series [5] is > 20 µM. In addition, in [6], the IC50 is > 20 µM. In addition, the IC50 in series [7] was > 20 µM.
The compound `O=C(NNc1nc2ccccc2n2cccc12)c1c[nH]c2ccccc12` [SC158, 1H-Indole-3-carboxylic acid N′-pyrrolo[1,2-a]quinoxalin-4-yl-hydrazide] registered a melting point of 162.5 °C. In addition, in series [4], the IC50 is > 20 µM. In addition, the IC50 in series [5] was > 20 µM. Also, the IC50 in series [6] was > 20 µM. In [7], the IC50 is > 20 µM.
As to `NC(CC(=O)NNc1nc2ccccc2n2cccc12)c1ccccc1Cl` (stereo not shown) [SC160, 3-Amino-3-(2-chloro-phenyl)-propionic acid N′-pyrrolo[1,2-a]quinoxalin-4-yl-hydrazide], the IC50 is > 20 µM in series [4]; > 20 µM in [9]; > 20 µM in series [5]; > 20 µM in series [6]; 17 µM in series [7].
On to `O=C(NNc1nc2cc(F)ccc2n2cccc12)c1ccccn1` [SC160′, N′-(7-Fluoropyrrolo[1,2-a]quinoxalin-4-yl)pyridine-2-carbohydrazide hydrochloride], for which the “activity in all cell lines” value in [8] is “inactive”.
`NC(CC(=O)NNc1nc2ccccc2n2cccc12)c1ccc(Cl)cc1` (stereo not shown) [SC161, 3-Amino-3-(4-chloro-phenyl)-propionic acid N′-pyrrolo[1,2-a]quinoxalin-4-yl-hydrazide]: the IC50 in [4] stood at 3 ± 2 µM; in series [9] it was 0.4 µM; in series [5], 0.4 ± 0.01 µM; in series [6], 0.3 ± 0.07 µM; in [7] it was 0.3 ± 0.06 µM.
As for `O=C(NNc1nc2cccc(F)c2n2cccc12)c1cnccn1` [SC161′, N′-(9-Fluoropyrrolo[1,2-a]quinoxalin-4-yl)pyrazine-2-carbohydrazide hydrochloride], in series [8], the “activity in all cell lines” value was “highly active” and the IC50 was in the range of 0.3 to 4 µM. Further, the colony formation result in series [10] was “completely blocks colony formation; also recorded: completely abolished cell growth”.
In the case of `Cl.O=C(NNc1nc2cc(F)ccc2n2cccc12)c1cccnc1` [SC162′, N′-(7-Fluoropyrrolo[1,2-a]quinoxalin-4-yl)nicotinyl hydrazide hydrochloride], the “activity in all cell lines” value in series [8] is “inactive”.
On to `O=C(NNc1nc2cc(F)ccc2n2cccc12)c1cnc2ccccc2n1` [SC166′, N′-(7-Fluoropyrrolo[1,2-a]quinoxalin-4-yl)quinoxaline-2-carbohydrazide hydrochloride], for which the IC50 in [8] was in the range of 8 to 15 µM.

For the origin of these results see patent US20110034472A1, “Novel Compounds for Treatment of Cancer and Disorders Associated With Angiogenesis Function” (UNIVERSITY OF SOUTHERN CALIFORNIA, priority 2004, published 2011).
